Tests used:
[1] = system: Pyricularia oryzae Carvara KA301; format: in vivo; conditions: for C. V. (%) RCB: 50 ppm, control value, rice blast; for C. V. (%) Fungicidal Activities against RCB at 10 ppm / C. V. (%) Fungicidal Activities against RCB at 10 ppm (TABLE 6): sprayed on Nakdong rice plant, control value from lesion area
Puccinia recondita = assay: Fungicidal activity against wheat leaf rust (WLR) disease; format: in vivo; conditions: for C. V. (%), Fungicidal Activities against WLB at 10 ppm: Table 8 (Test Example 5); for C. V. (%) WLR: 50 ppm, control value, wheat leaf rust
Botrytis cinerae = assay: Fungicidal activity against cucumber gray mold rot (CGM) disease; format: in vivo; conditions: 50 ppm, control value
Rhizoctonia solani AG-1 = assay: Fungicidal activity against rice sheath blight (RSB) disease; conditions: 50 ppm, control value
Erysiphae graminis = assay: Fungicidal activity against barley powdery mildew (BPM) disease; format: in vivo; conditions: for C. V. (%), Fungicidal activities against TLB at 10 ppm: Table 9 (Test Example 6); for C. V. (%) BPM: 50 ppm, control value, barley powdery mildew
Phytophthora infestans = format: in vivo; conditions: 50 ppm; control value, tomato late blight

Compound | C. V. (%) RCB [1] | C. V. (%), Fungicidal Activities against WLB at 10 ppm (Puccinia recondita) | C. V. (%) WLR (Puccinia recondita) | C. V. (%) CGM (Botrytis cinerae) | C. V. (%) RSB (Rhizoctonia solani AG-1) | C. V. (%), Fungicidal activities against TLB at 10 ppm (Erysiphae graminis) | C. V. (%) BPM (Erysiphae graminis) | C. V. (%) TLB (Phytophthora infestans) | C. V. (%) Fungicidal Activities against RCB at 10 ppm [1] | C. V. (%) Fungicidal Activities against RCB at 10 ppm (TABLE 6) [1]
COC=C(C(=O)OC)c1ccccc1COc1cccc(OC(F)=C(c2ccc(Cl)cc2)C(F)(F)F)c1 [Compound 88] | 92% | 93% | 98% | 25% | 25% | 100% | 100% | 31% | – | –
CNC(=O)C(=COC)c1ccccc1COc1cccc(OC(F)=C(c2ccc(Cl)cc2)C(F)(F)F)c1 [Compound 89] | 0% | – | 33% | 22% | 25% | – | 0% | 33% | – | –
CON=C(C(=O)OC)c1ccccc1COc1cccc(OC(F)=C(c2ccc(Cl)cc2)C(F)(F)F)c1 [Compound 90] | 90% | – | 100% | 25% | 30% | 97% | 99% | 0% | 93% | 93%
CNC(=O)C(=NOC)c1ccccc1COc1cccc(OC(F)=C(c2ccc(Cl)cc2)C(F)(F)F)c1 [Compound 91] | 99% | 100% | 100% | 17% | 90% | 100% | 100% | 64% | 99% | 99%
COC=C(C(=O)OC)c1ccccc1COc1cccc(OC(F)=C(c2cccc(F)c2)C(F)(F)F)c1 [Compound 92] | 93% | 100% | 100% | 16% | 55% | 99% | 100% | 81% | – | –
CNC(=O)C(=COC)c1ccccc1COc1cccc(OC(F)=C(c2cccc(F)c2)C(F)(F)F)c1 [Compound 93] | 0% | – | 73% | 0% | 5% | – | 0% | 0% | – | –
CON=C(C(=O)OC)c1ccccc1COc1cccc(OC(F)=C(c2cccc(F)c2)C(F)(F)F)c1 [Compound 94] | 41% | 95% | 100% | 0% | 60% | 99% | 100% | 40% | – | –
CNC(=O)C(=NOC)c1ccccc1COc1cccc(OC(F)=C(c2cccc(F)c2)C(F)(F)F)c1 [Compound 95] | 100% | 100% | 100% | 0% | 72% | 100% | 100% | 0% | 100% | 100%
COC=C(C(=O)OC)c1ccccc1COc1cccc(OC(F)=C(c2ccc(F)cc2)C(F)(F)F)c1 [Compound 96] | 90% | 97% | 100% | 33% | 67% | 100% | 100% | 62% | 95% | 95%
CNC(=O)C(=COC)c1ccccc1COc1cccc(OC(F)=C(c2ccc(F)cc2)C(F)(F)F)c1 [Compound 97] | 0% | – | 83% | 11% | 10% | – | 33% | 22% | – | –
CON=C(C(=O)OC)c1ccccc1COc1cccc(OC(F)=C(c2ccc(F)cc2)C(F)(F)F)c1 [Compound 98] | 33% | 96% | 100% | 0% | 65% | 98% | 100% | 25% | – | –
CNC(=O)C(=NOC)c1ccccc1COc1cccc(OC(F)=C(c2ccc(F)cc2)C(F)(F)F)c1 [Compound 99] | 80% | 100% | 100% | 21% | 90% | 100% | 100% | 48% | 95% | 95%
